In one assay the target is stromelysin-1 (Homo sapiens, UniProt P08254). Briefly: Matrix metalloprotease inhibition, fluorogenic substrate: stromelysin-1. Format: biochemical. As for the experimental part:
(§1) Assays are conducted in a total volume of 0.180 mL assay buffer (200 mM NaCl, 50 mM Tris, 5 mM CaCl2, 10 μM ZnSO4, 0.005% Brij 35, pH 7.6) in each well of a black 96-well microtiter plate. 19 kD collagenase-1, 20 kD collagenase-3, stromelysin-1,and 50 kD gelatinase B concentrations are adjusted to 500 pM, 30 pM, 5 nM, and 100 pM, respectively. A dose response is generated using an eleven-point, 3-fold serial dilution with initial starting test compound concentrations of 100, 10, or 1 μM. Inhibitor and enzyme reactions are incubated for 30 minutes at ambient temperature and then initiated with 10 μM fluorogenic substrate (above). The product formation is measured at Excitation343 /Emission450 nm after 45-180 minutes using a Fluostar SLT fluorescence analyzer. Percent inhibition is calculated at each inhibitor concentration and the data are plotted using standard curve fitting programs. IC50 values are determined from these curves. Assays are run at low substrate concentration ([S]<<Km) such that the calculated IC50 values are equivalent to Ki within experimental error.

In assay [1] the target is T1, 19 kD truncated collagenase-1 (MMP-1) (Homo sapiens, UniProt P03956).
T1 construct: 19 kD truncated collagenase-1 (MMP-1)
T1 sequence (P03956 101-269 limits assumed): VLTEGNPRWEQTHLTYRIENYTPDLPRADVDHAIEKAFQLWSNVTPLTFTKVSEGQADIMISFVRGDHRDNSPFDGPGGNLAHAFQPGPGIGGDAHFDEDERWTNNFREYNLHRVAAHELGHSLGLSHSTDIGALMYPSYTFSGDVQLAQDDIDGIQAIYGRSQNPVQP
Briefly: Matrix metalloprotease inhibition, fluorogenic substrate: collagenase-1. The class given is biochemical. As for the experimental part:
as §1

Assay [2] relates to release of soluble tumor necrosis factor α from stimulated monocytes. Briefly: Cell-based TNFα release inhibition, LPS/PMA-stimulated MonoMac 6 cells, ELISA. To be noted: Homo sapiens, MONO-MAC-6, 37° C., 2 h. As for the experimental part: Compounds (10 mM) are serially diluted 1:3 in DMSO. Compound dilutions (20 μL) are added to a sterile round bottom 96 well plate (20 μL:200 μL total volume=1:10 for final concentrations of […] for test compounds). MonoMac 6 cell suspension (130 μL, 1.5×10^6 cells/mL) is then added to each well resulting in 2×10^5 cells/well. LPS/PMA (50 μL) solution is then added to each well (final concentrations of 10 ng/mL and 30 ng/mL respectively). The plate is incubated at 37° C. for 2 h then spun at 1,500 rpm for 3 min to pellet cells. The supernatant (120 μL/well) is removed to a new round bottom 96 well plate and diluted 1:10 in PBS. Then, 20 μL of the supernatant is transferred to a Cistron […] ELISA plate and processed according to the manufacturer's instructions to quantitate levels of TNFα. Percent inhibition of TNFα release is calculated at each inhibitor concentration and the data are plotted using standard curve fitting programs. IC50 values are determined from these curves.
(In general: An ELISA detects its analyte on a solid surface through an enzyme-linked reagent.)

The test system of a further assay is serum TNFα. Briefly: Murine LPS-stimulated serum TNF inhibition. The class given is in vivo, mouse (C3/hen female mice). To be noted: s.c., 40 mg/kg, 10 min prior to 200 μg/kg i.p. LPS; 90 min after LPS. As for the experimental part:
USA) for a final DMSO concentration of 1%. The dosing solution is sonicated briefly and 0.2 mL is injected subcutaneously 10 min prior to LPS injection, b) for per oral (p.o.) administration, test compounds are formulated in 0.2 mL of PBS and 0.1% Tween 80 and given orally via gavage 10 min prior to LPS administration.
Blood is immediately taken from the caudal vena cava and plasma prepared and frozen at -80° C. Plasma concentrations of TNF are measured by ELISA (Genzyme Co., Cambridge Mass.).

Another assay deals with T2, TNFα Converting Enzyme (Homo sapiens, UniProt P78536).
T2 construct: Membrane preparation from MonoMac 6 cells; endogenous in cells; host or cells: MonoMac 6 cells, subfractionated membrane preparation
T2 sequence (P78536 215-824): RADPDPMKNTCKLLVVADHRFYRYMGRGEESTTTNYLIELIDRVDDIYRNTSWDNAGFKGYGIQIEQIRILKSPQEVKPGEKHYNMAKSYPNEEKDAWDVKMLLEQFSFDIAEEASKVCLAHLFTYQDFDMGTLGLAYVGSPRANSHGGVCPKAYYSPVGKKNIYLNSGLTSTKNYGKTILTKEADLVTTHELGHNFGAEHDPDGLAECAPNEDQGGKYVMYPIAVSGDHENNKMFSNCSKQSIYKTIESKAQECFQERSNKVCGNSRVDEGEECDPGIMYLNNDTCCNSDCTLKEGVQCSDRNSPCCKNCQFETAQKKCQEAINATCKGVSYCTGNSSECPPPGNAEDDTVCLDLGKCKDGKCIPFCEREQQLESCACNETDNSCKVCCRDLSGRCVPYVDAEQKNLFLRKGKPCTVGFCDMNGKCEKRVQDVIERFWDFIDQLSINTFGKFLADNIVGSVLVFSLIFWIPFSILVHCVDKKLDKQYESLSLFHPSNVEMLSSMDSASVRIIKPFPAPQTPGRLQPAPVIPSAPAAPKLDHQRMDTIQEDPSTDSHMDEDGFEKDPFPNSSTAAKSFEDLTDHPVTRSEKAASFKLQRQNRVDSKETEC
Briefly: TNFα converting enzyme inhibition, MonoMac 6 membrane preparation, radiolabeled substrate SPA. On TNFα Converting Enzyme Ki: 200 nM substrate. The class given is biochemical. As for the experimental part:
The reaction is quenched by addition of streptavidin SPA beads (Amersham RPNQ0006), with excess binding capacity relative to substrate, suspended in 250 mM EDTA, pH 8.0. Binding is complete within 15 minutes and plates are counted in a Wallac 1450 Microbeta liquid scintillation counter. Percent inhibition is calculated at each inhibitor concentration and the data are plotted using standard curve fitting programs. IC50 values are determined from these curves. Assays are run at low substrate concentration ([S]<<Km) such that the calculated IC50 values are equivalent to Ki within experimental error.

[3] abbreviates: read-out: TNFα Converting Enzyme Ki.

Like-named read-outs stand apart in the source and are kept apart here.

Sequence of stromelysin-1 (P08254 100-477): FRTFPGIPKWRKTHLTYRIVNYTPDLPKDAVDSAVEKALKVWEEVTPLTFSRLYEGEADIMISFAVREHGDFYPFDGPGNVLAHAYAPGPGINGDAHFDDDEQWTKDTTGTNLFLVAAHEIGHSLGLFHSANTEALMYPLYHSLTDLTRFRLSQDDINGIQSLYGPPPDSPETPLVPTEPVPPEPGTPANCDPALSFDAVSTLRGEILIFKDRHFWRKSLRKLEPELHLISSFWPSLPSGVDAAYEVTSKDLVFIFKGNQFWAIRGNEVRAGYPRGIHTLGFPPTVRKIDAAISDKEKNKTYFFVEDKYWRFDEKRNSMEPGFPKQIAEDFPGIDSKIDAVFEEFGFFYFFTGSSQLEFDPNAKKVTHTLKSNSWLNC

For `CCC[C@@H]([C@@H](CC(C)C)C(=O)N[C@@H](CCCNC(N)=N[N+](=O)[O-])C(=O)Nc1nccs1)N(O)C=O` [Example 1, (2R,3S)-3-(Formyl-hydroxyamino)-2-(2-methyl-1-propyl)hexanoic Acid [(1S)-4-(nitroimino-amino)methylamino-1-(1,3-thiazol-2-ylcarbamoyl)-1-butyl]amide], the Ki (at stromelysin-1; in assay [1]) was under 50 nM throughout. For the same compound, the half-inhibitory concentration (IC50) in assay [2] is under 50 nM. Moreover, the “Percentage Inhibition of Serum TNFα” value in the assay on serum TNFα was “+++ (>75%)”.

In the case of `CCC[C@@H]([C@@H](CC1CCCCC1)C(=O)N[C@@H](CCCNC(N)=N[N+](=O)[O-])C(=O)Nc1nccs1)N(O)C=O` [Example 2, (2R,3S)-3-(Formyl-hydroxyamino)-2-(cyclohexylmethyl)hexanoic Acid [(1S)-4-(nitroimino-amino)methylamino-1-(1,3-thiazol-2-ylcarbamoyl)-1-butyl]amide], the Ki at stromelysin-1 was 50 to 250 nM; in assay [1], 50 to 250 nM; on TNFα Converting Enzyme (setting [3]), under 50 nM. The IC50 in assay [2] was under 50 nM. Moreover, in the assay on serum TNFα, the “Percentage Inhibition of Serum TNFα” value is “++ (50%-75%)”.

With `CC(C)C[C@@H](C(=O)N[C@H](C(=O)Nc1nccs1)[C@H](C)CCNC(N)=N[N+](=O)[O-])[C@H](C)N(O)C=O` [Example 3, (2R,3S)-3-(Formyl-hydroxyamino)-2-(2-methyl-1-propyl)butanoic Acid [(1S,2R)-2-Methyl-4-(nitroimino-amino)methylamino-1-(1,3-thiazol-2-ylcarbamoyl)-1-butyl]amide], the Ki at stromelysin-1 was 50 to 250 nM; in assay [1], under 50 nM; on TNFα Converting Enzyme (setting [3]) it was under 50 nM. The compound further registered an IC50 in assay [2] of under 50 nM.

On to `CCC[C@@H]([C@@H](CC(C)C)C(=O)N[C@H](C(=O)Nc1nccs1)[C@H](C)CCNC(N)=N[N+](=O)[O-])N(O)C=O` [Example 4, (2R,3S)-3-(Formyl-hydroxyamino)-2-(2-methyl-1-propyl)hexanoic Acid [(1S,2R)-2-Methyl-4-(nitroimino-amino)methylamino-1-(1,3-thiazol-2-ylcarbamoyl)-1-butyl]amide], for which the Ki on stromelysin-1 was 50 to 250 nM; in assay [1], under 50 nM; at TNFα Converting Enzyme (setting [3]) it was under 50 nM. The compound further returned an IC50 in assay [2] of under 50 nM.

`CC(C)C[C@@H](C(=O)N[C@@H](CCCNC(N)=N[N+](=O)[O-])C(=O)Nc1nccs1)[C@H](Cc1ccccc1)N(O)C=O` [Example 5]: the Ki (at stromelysin-1; in assay [1]) was under 50 nM throughout. In assay [2], this compound showed an IC50 of 250 to 500 nM.

`NC(=N[N+](=O)[O-])NCCC[C@H](NC(=O)[C@H](CC1CCCCC1)[C@H](CCC(F)(F)F)N(O)C=O)C(=O)Nc1nccs1` [Example 6, (2R,3S)-3-(Formyl-hydroxyamino)-2-(cyclohexylmethyl)-6,6,6-trifluorohexanoic Acid [(1S)-4-(nitroimino-amino)methylamino-1-(1,3-thiazol-2-ylcarbamoyl)-1-butyl]amide]: the Ki at stromelysin-1 was 50 to 250 nM; in assay [1], 50 to 250 nM; at TNFα Converting Enzyme (setting [3]), under 50 nM. The compound also showed an IC50 in assay [2] of 50 to 250 nM. Moreover, the “Percentage Inhibition of Serum TNFα” value in the assay with serum TNFα is “++ (50%-75%)”.

Turning to `CCC[C@@H]([C@@H](CC1CCC(C)CC1)C(=O)N[C@@H](CCCNC(N)=N[N+](=O)[O-])C(=O)Nc1nccs1)N(O)C=O` (stereo partly drawn) [Example 7, (2R,3S)-3-(Formyl-hydroxyamino)-2-(4-methylcyclohexyl-methyl)hexanoic Acid [(1S)-4-(nitroimino-amino)methyl-amino-1-(1,3-thiazol-2-ylcarbamoyl)-1-butyl]amide], the Ki was 50 to 250 nM at stromelysin-1, 50 to 250 nM in assay [1] and under 50 nM at TNFα Converting Enzyme (setting [3]). This compound returned an IC50 in assay [2] of 50 to 250 nM. Further, the “Percentage Inhibition of Serum TNFα” value in the assay with serum TNFα is “++ (50%-75%)”.

Consider `CC1CCC(C[C@@H](C(=O)N[C@@H](CCCNC(N)=N[N+](=O)[O-])C(=O)Nc2nccs2)[C@H](C(C)C)N(O)C=O)CC1` (stereo partly drawn) [Example 8, (2R,3S)-3-(Formyl-hydroxyamino)-2-(4-methylcyclohexyl-methyl)-4-methylpentanoic Acid [(1S)-4-(nitroimino-amino)methylamino-1-(1,3-thiazol-2-ylcarbamoyl)-1-butyl]amide], for which the Ki (on stromelysin-1; in assay [1]) was 50 to 250 nM in each case. The IC50 in assay [2] is under 50 nM. The “Percentage Inhibition of Serum TNFα” value in the assay with serum TNFα is “++ (50%-75%)”.

As to `CCC[C@@H]([C@@H](Cc1ccc(C)s1)C(=O)N[C@@H](CCCNC(N)=N[N+](=O)[O-])C(=O)Nc1nccs1)N(O)C=O` [Example 9, (2R,3S)-3-(Formyl-hydroxyamino)-2-(5-methyl-2-thio-phenemethyl)hexanoic Acid [(1S)-4-((nitroimino-amino)methylamino)-1-(1,3-thiazol-2-ylcarbamoyl)-1-butyl]amide], the values for the Ki (at stromelysin-1; in assay [1]) were 50 to 250 nM and over 1000 nM, respectively. In addition, the IC50 in assay [2] lay in the range of 50 to 250 nM.

Consider `NC(=N[N+](=O)[O-])NCCC[C@H](NC(=O)[C@H](CC1CCCCC1)[C@H](C1CC1)N(O)C=O)C(=O)Nc1nccs1` [Example 10, (2R,3S)-3-(Formyl-hydroxyamino)-2-(cyclohexylmethyl)-3-cyclopropylpropanoic Acid [(1S)-4-(nitroimino-amino)methylamino-1-(1,3-thiazol-2-ylcarbamoyl)-1-butyl]amide], for which the Ki on stromelysin-1 is over 1000 nM; in assay [1], 50 to 250 nM; at TNFα Converting Enzyme, under 50 nM. This compound also displayed an IC50 in assay [2] of 250 to 500 nM. The “Percentage Inhibition of Serum TNFα” value in the assay with serum TNFα is given as “++ (50%-75%)”.

A word on the Ki: it is a measure of affinity in units of concentration, obtained from inhibition or displacement. Usually IC50 stands for the concentration at which inhibition is half-maximal. Read a high IC50 as weaker potency in that assay.

For the origin of these results see US6191150A, “Formamide compounds as therapeutic agents” (Glaxo Wellcome Inc., priority 1998, dated 2001).
